In patent publication US6632447B1, “Method for chemoprevention of prostate cancer” (The University of Tennessee Research Corporation, priority 1998, dated 2003):

How the values were obtained:
[1] = test system: human stromal fibroblast cells; experiment: TGF synthesis in human stromal fibroblast cells; assay type: cell-based
[2] = test system: prostate cancer in the ventral prostate of TRAMP mice; experiment: Chemopreventive activity of toremifene pellets in TRAMP transgenic mice (palpable tumor formation); assay type: in vivo, mouse
Description: The study of prostate cancer chemoprevention has been hindered by the lack of appropriate animal models. The recent development of the transgenic adenocarcinoma mouse prostate (TRAMP) model enables the study of chemoprevention. In the TRAMP model, which is described in Greenberg et al., AProstate cancer in a transgenic mouse, Proc. Natl Acad. Sci. USA, 1995, Vol. 92, pages 3439-3443, the PB-SV40 large T antigen (PB-Tag) transgene is expressed specifically in the epithelial cells of the murine prostate. […]
A study was undertaken to test the efficacy of chemopreventive agents in TRAMP transgenic animals (PBTag X FVBwt) (provided by Dr. Norman Greenberg, Baylor College of Medicine, TX). […] The efficacy of the treatment was measured by the absence of palpable tumor formation. The murine prostate tumors were harvested and evaluated by molecular and histological techniques.

[3] = test system: prostate tumor in TRAMP mice; experiment: Prostatic wholemount, histology and large T antigen immunohistochemistry in TRAMP mice; assay type: in vivo, mouse; conditions: vs placebo at 15 weeks
Protocol: This present study focuses on the histological and molecular changes associated with development of prostate tumor in control animals and the mechanism of toremifene chemopreventive action with TRAMP animals which are bred, screened and treated with sustained-release drug pellets. At predetermined times, groups of 5 animals were sacrificed and their prostates were removed for analysis. The prostate glands were evaluated for the presence of tumor by histology, wholemount dissections, and large T antigen immunohistochemistry. To date, the Placebo and the Toremifene treatments have been completed for the 7, 10, 15 and 20 week time-points and the results are described below.
Prostatic wholemounts for 7, 10, 15, and 20 weeks for the various groups have been completed. […] By 20 weeks, there is a striking delay in tumor occurrence in the Toremifene treated group up to 35 weeks FIG. 4). […] For histological evaluation, tissue samples were fixed, processed and paraffin embedded. Sections ([…]) were cut and stained by routine H&E method.

[4] = test system: TRAMP mouse ventral prostate; experiment: Histological examination (H&E) of ventral prostate tissue of TRAMP mice; assay type: in vivo; conditions: toremifene-treated 30-week-old TRAMP mouse vs placebo-treated 16-week-old
Protocol: 1) Prostate wholemount analysis is serially performed to detect changes in prostate ductal morphology over time with and without treatment; examples are shown in FIG. 2. Tissue sections are evaluated histologically by H&E and Masson-trichome standard staining. The emergence of PIN is assessed and graded (I-mild to III-severe).
Tumors from the placebo and high toremifene-treated groups taken at the time of palpation were evaluated histologically. FIG. 2A is an H&E section of the ventral prostate of a 17-week-old normal adult mouse.

[5] = test system: prostate intraepithelial neoplasia (PIN); experiment: Phase IIa prostate cancer chemoprevention human clinical trial (PIN regression); assay type: in vivo; conditions: 60 mg daily for 4 months
Protocol: A Phase IIa, open labeled non randomized single center study with 21 human subjects was conducted. […] After 4 months, patients are rebiopsied (8 biopsies) and PIN status is reassessed. Twenty-one patients entered the study and sixteen patients have completed the study.

serum PSA, serum free testosterone, serum total testosterone and serum estradiol [5]: remained in the normal ranges
Compound: CN(C)CCOc1ccc(/C(=C(/CCCl)c2ccccc2)c2ccccc2)cc1 [Toremifene, toremifene]
TGF? synthesis [1]: significantly induce TGF? synthesis | delay of time to tumors in 25% of the animals ([2]; high and low toremifene groups versus placebo): 7-8 weeks | week by which tumors were palpable in 25% of the animals ([2]; high and low toremifene groups, placebo week 23): 30-31 weeks | ductal development and tissue differentiation (H&E histology) [3]: inhibited the ductal development and tissue differentiation | glandular architecture of the prostate (H&E) [4]: retains much of the normal glandular architecture | mitotic index [4]: much lower than that for the placebo-treated animal | patients with regression of PIN to benign or atrophic prostate tissue (complete response) ([5]; 16 patients completed): 12 out of 16
